Measured values reported in US10543185B2, “Method for treating idiopathic pulmonary fibrosis” (The University of Chicago, priority 2015, dated 2020).
“Also recorded” adds a separate entry of the source.

Assays:
[1] = tested on: patients with idiopathic pulmonary fibrosis (IPF); test: Independent replication cohort (INSPIRE trial and University of Chicago): NAC versus no NAC therapy, genotype-stratified; format: in vivo, human; conditions: for Replication cohort multivariate Cox interaction model coefficient, NAC Therapy term: FVC, DLCO, prednisone use, azathioprine use and study cohort; for Replication cohort multivariate Cox interaction model coefficient, SNP*NAC interaction term: adjusted as in the Table 9 footnote; for Genotype-stratified Composite Endpoint Risk Associated with NAC Therapy, HR: vs no NAC therapy
Source text: The INSPIRE cohort consists of individuals enrolled in the industry-sponsored randomized clinical trial comparing interferon gamma-1b to placebo. […] Clinical and genetic data for patients providing informed consent to genetic testing were used to conduct the analysis. Patients were followed for up to 170 weeks after randomization.
The University of Chicago (UChicago) cohort consists of individuals followed in the UChicago ILD clinic from 2007-2013 who provided informed consent to undergo DNA testing. Patients were followed from time of initial evaluation until death, lung transplantation, loss-to-follow up or time of censoring (Sep. 9, 2013). Vital status was determined using telephone interviews with family members and the social security death index. Patients participating in PANTHER and INSPIRE were removed from the UC cohort.
(§1) To minimize the effects of population stratification, only participants that self-declared a non-Hispanic white ethnicity were included in the analysis. Demographic and clinical information extracted from the datasets included age, gender, race/ethnicity, treatment arm, pulmonary function testing (PFT) including forced vital capacity (FVC) and diffusion capacity for carbon monoxide (DLCO) and outcomes, including death, >10% decline in FVC, hospitalization and lung transplantation.
Hospitalization data were not available for patients in the replication cohort so composite endpoint-free survival was defined as time from trial enrollment (INSPIRE) or blood draw (UChicago) to death, ≥10% FVC decline or transplantation in those not receiving NAC therapy and time from NAC initiation to death, >10% FVC decline or transplantation in those receiving NAC therapy. Because follow-up time was longer for the UChicago compared to INSPIRE cohort, UChicago cohort survival time was censored at 170 weeks to allow for merging of the datasets. All statistical analysis was conducted using Stata (StataCorp. 2011. Release 12. College Station, Tex.).
Based on the findings above, interaction modeling was performed in an independent cohort between NAC therapy and rs3750920 (TOLLIP), rs5743894 (TOLLIP) and rs35705950 (MUC5B). Of the 771 non-Hispanic white individuals enrolled in the INSPIRE trial, DNA was available for 314. In the UChicago cohort, of 151 non-Hispanic white individuals with sequencing data, 91 had longitudinal PFT data and were included in the analysis. A summary of baseline demographic and clinical characteristics, along with genotype counts for the INSPIRE, UChicago and combined cohorts are shown in Table 8.

[2] = tested on: patients with idiopathic pulmonary fibrosis (IPF); test: PANTHER-IPF clinical trial cohort: secondary genotype-stratified survival analysis, NAC or PAN versus placebo; format: in vivo, human; conditions: for Composite Endpoint, %: 10% FVC decline, hospitalization or transplantation; for Treatment-Specific Composite Endpoint Risk, HR / Multivariable Cox interaction model coefficient, therapy term / Multivariable Cox interaction model coefficient, SNP*therapy interaction term: adjusted for age, gender; for Treatment-Specific Composite Endpoint Risk, HR: FVC (% predicted) and DLCO (% predicted); for Multivariable Cox interaction model coefficient, therapy term / Multivariable Cox interaction model coefficient, SNP*therapy interaction term: composite endpoint-free survival, FVC and DLCO; for Progression-Free Survival HR (95% CI) / Hospitalization-Free Survival HR (95% CI): NAC vs placebo
Source text: Single nucleotide polymorphisms (SNPs) within TOLLIP and MUC5B are associated with idiopathic pulmonary fibrosis (IPF) susceptibility and survival. Both genes play critical roles in lung host defense, a process that can be influenced by oxidative stress and modulated by N-acetylcysteine (NAC). Applicants set out to determine whether SNPs within TOLLIP and MUC5B modify the efficacy of NAC therapy in patients with IPF. To achieve this, secondary analysis was completed of the PANTHER-IPF clinical trial (n=154) and an independent replication cohort (n=405) composed of patients from the INSPIRE clinical trial and University of Chicago. SNPs within TOLLIP (rs5743890/rs5743894/rs5743854/rs3750920) and MUC5B ([…]) were genotyped. Multivariable Cox regression with interaction analysis was performed followed by genotype-stratified models for significant interaction SNPs to determine genotype-specific survival associated with NAC therapy. A composite endpoint of death, FVC decline, hospitalization or transplantation was used.
The PANTHER cohort consists of individuals enrolled in the IPFnet randomized clinical trial comparing three treatments: prednisone/azathioprine/N-acetylcysteine (PAN) combination therapy, N-acetylcysteine (NAC) monotherapy and placebo. […] Enrollment resumed for the NAC and placebo arms from January to July 2012, with study completion in 2013. Clinical and genetic data for patients providing informed consent to genetic testing were used to conduct the analysis. Patients were followed for up to 72 weeks after randomization.
as §1
The primary analysis tested whether statistical interaction was present between SNPs of interest and NAC therapy with regard to composite endpoint-free survival, defined as time from trial enrollment to death, ≥10% FVC decline, hospitalization or transplantation. Interaction was formally tested with a multivariable Cox regression model that included the following variables: SNP genotype, NAC therapy, and a SNP*NAC interaction term, age, gender, FVC (% predicted) and DLCO (% predicted). Statistical interaction was considered present when the Wald z-statistic for SNP*NAC interaction term corresponded to a p-value <0.01, which adjusts for multiple testing by Bonferroni correction. Interaction detected by this method was then further explored by constructing genotype-stratified multivariable Cox models to determine genotype-specific endpoint risk associated with NAC therapy. Based on SNP distributions, an additive allelic model was assumed for rs3750920 (TOLLIP) and a dominant model for rs5743890 (TOLLIP), rs5743894 (TOLLIP), rs5743854 (TOLLIP) and rs35705950 (MUC5B). Each model was checked to ensure that the proportional hazards assumption was met.
Of the 341 patients enrolled in the PANTHER trial, 315 self-reported a non-Hispanic white ethnicity (FIG. 2). Of those 315 individuals, 154 consented to genetic testing and were included in the primary analysis. Among genotyped patients, fifty-four patients received placebo therapy and […] patients received NAC therapy. Baseline demographic and clinical characteristics between non-Hispanic white genotyped (n=154) and non-genotyped (n=161) patients stratified by treatment group are shown in Table 1. […]

[3] = tested on: patients with idiopathic pulmonary fibrosis (IPF); conditions: previous reports (Martinez et al., N Engl J Med. 2014); cited from earlier work
[4] = tested on: patients with idiopathic pulmonary fibrosis (IPF); conditions: trial stopped early; cited from earlier work
[5] = INSPIRE cohort, NAC recipients (n = 29)
[6] = UChicago cohort, NAC recipients (n = 18)
[7] = combined replication cohort, NAC recipients (n = 47)
[8] = PANTHER genotyped patients, NAC arm (n = 60)
[9] = PANTHER non-genotyped patients, NAC arm (n = 61)

CC(=O)N[C@@H](CS)C(=O)O [NAC, (2R)-2-acetamido-3-sulfanylpropanoic acid]
Composite Endpoint, % [1, 5]: (48.3) % | Death, % [1, 5]: (20.7) % | FVC Decline ≥10%, % [1, 5]: (44.8) % | Transplant, % [1, 5]: (6.9) % | Composite Endpoint, % [1, 6]: (72.2) % | Death, % [1, 6]: (72.2) % | FVC Decline ≥10%, % [1, 6]: (22.2) % | Transplant, % [1, 6]: (0) % | Composite Endpoint, % [1, 7]: (57.5) % | FVC Decline ≥10%, % [1, 7]: (36.2) % | Transplant, % [1, 7]: (4.3) % | Replication cohort multivariate Cox interaction model coefficient, NAC Therapy term ([1]; model with rs3750920 (TOLLIP), adjusted for age, gender): 1.37 | Replication cohort multivariate Cox interaction model coefficient, SNP*NAC interaction term ([1]; model with rs5743894 (TOLLIP), term printed as rs3750920*NAC interaction): −0.40 | Replication cohort multivariate Cox interaction model coefficient, NAC Therapy term ([1]; model with rs5743894 (TOLLIP), adjusted for age, gender): 0.54 | Replication cohort multivariate Cox interaction model coefficient, NAC Therapy term ([1]; model with rs35705950 (MUC5B), adjusted for age, gender): 1.24 | Unadjusted Kaplan-Meier survival among NAC recipients, rs3750920 TT genotype versus CC or CT genotype ([1]; replication cohort, FIG. 3, p=0.03): significantly better overall survival | Genotype-stratified Composite Endpoint Risk Associated with NAC Therapy, HR ([1]; replication cohort, rs3750920 (TOLLIP) CC, adjusted for age, gender, FVC and DLCO): 3.51 | Genotype-stratified Composite Endpoint Risk Associated with NAC Therapy, HR ([1]; replication cohort, rs3750920 (TOLLIP) CT): 2.27 | Genotype-stratified Composite Endpoint Risk Associated with NAC Therapy, HR ([1]; replication cohort, rs3750920 (TOLLIP) TT): 0.23 | Genotype-stratified Composite Endpoint Risk Associated with NAC Therapy, HR ([1]; replication cohort, rs35705950 (MUC5B) GG): 3.15 | Genotype-stratified Composite Endpoint Risk Associated with NAC Therapy, HR ([1]; replication cohort, rs35705950 (MUC5B) GT/TT): 0.94 | Replication cohort multivariate Cox interaction model coefficient, SNP*NAC interaction term ([1]; rs3750920 (TOLLIP) interaction): −0.86 | Replication cohort multivariate Cox interaction model coefficient, SNP*NAC interaction term ([1]; rs35705950 (MUC5B) interaction): −1.30 | Death, % [2, 8]: (1.7) % | FVC Decline ≥10%, % [2, 8]: (18.3) % | Hospitalization, % [2, 8]: (13.3) % | Transplant, % [2, 8]: (5) % | Composite Endpoint, % ([2]; PANTHER genotyped patients, NAC arm (n = 60), death): (31.7) % | Death, % [2, 9]: (4.9) % | FVC Decline ≥10%, % [2, 9]: (27.9) % | Hospitalization, % [2, 9]: (14.8) % | Transplant, % [2, 9]: (1.6) % | Composite Endpoint, % ([2]; PANTHER non-genotyped patients, NAC arm (n = 61), death): (42.6) % | Treatment-Specific Composite Endpoint Risk, HR ([2]; genotyped PANTHER patients): 0.92 | Multivariable Cox interaction model coefficient, therapy term ([2]; model with rs3750920 (TOLLIP)): 1.34 | Multivariable Cox interaction model coefficient, therapy term ([2]; model with rs5743890 (TOLLIP)): 0.17 | Multivariable Cox interaction model coefficient, therapy term ([2]; model with rs5743894 (TOLLIP)): 0.45 | Multivariable Cox interaction model coefficient, therapy term ([2]; model with rs35705950 (MUC5B)): 0.91 | Treatment-Specific Composite Endpoint Risk, HR ([2]; non-genotyped PANTHER patients): 1.31 | Progression-Free Survival HR (95% CI) ([2]; rs3750920 (TOLLIP) CC genotype, death, 10% FVC decline or transplant): 1.27 (0.21-7.55) | Hospitalization-Free Survival HR (95% CI) ([2]; rs3750920 (TOLLIP) CC genotype, death, hospitalization or transplant): 3.74 (0.35-39.80) | Hospitalization-Free Survival HR (95% CI) ([2]; rs3750920 (TOLLIP) CT genotype): 0.45 (0.10-2.15) | Progression-Free Survival HR (95% CI) ([2]; rs3750920 (TOLLIP) CT genotype): 0.63 (0.17-2.30) | Progression-Free Survival HR (95% CI) ([2]; rs3750920 (TOLLIP) TT genotype): 0.09 (0.01-0.76) | Multivariable Cox interaction model coefficient, SNP*therapy interaction term ([2]; rs3750920 (TOLLIP) interaction): −1.47 | Multivariable Cox interaction model coefficient, SNP*therapy interaction term ([2]; rs5743890 (TOLLIP) interaction): −1.17 | Hospitalization-Free Survival HR (95% CI) ([2]; rs5743894 (TOLLIP) AA genotype): 1.43 (0.44-4.70) | Progression-Free Survival HR (95% CI) ([2]; rs5743894 (TOLLIP) AA genotype): 1.68 (0.58-4.90) | Hospitalization-Free Survival HR (95% CI) ([2]; rs5743894 (TOLLIP) AG/GG genotype): 0.21 (0.02-1.99) | Multivariable Cox interaction model coefficient, SNP*therapy interaction term ([2]; rs5743894 (TOLLIP) interaction): −1.42 | Hospitalization-Free Survival HR (95% CI) ([2]; rs35705950 (MUC5B) GG genotype): 1.25 (0.15-10.30) | Progression-Free Survival HR (95% CI) ([2]; rs35705950 (MUC5B) GG genotype): 3.72 (0.69-20.16) | Hospitalization-Free Survival HR (95% CI) ([2]; rs35705950 (MUC5B) GG/TT genotype as printed in Table 7 (text: GT or TT)): 0.49 (0.15-1.58) | Multivariable Cox interaction model coefficient, SNP*therapy interaction term ([2]; rs35705950 (MUC5B) interaction): −1.40 | Benefit of therapy in patients with IPF, unselected by genotype [3]: no benefit; also recorded: did not provide benefit; also recorded: ineffective

B1: interferon gamma-1b: study drug of the INSPIRE randomized clinical trial, compared to placebo (protein, UniProt P01579 24-161, looked up)
Interferon gamma: QDPYVKEAENLKKYFNAGHSDVADNGTLFLGILKNWKEESDRKIMQSQIVSFYFKLFKNFKDDQSIQKSVETIKEDMNVKFFNSNKKKRDDFEKLTNYSVTDLNVQRKAIHELIQVMAELSPAAKTGKRKRSQMLFRG
modifications: interferon gamma-1b
notes: study drug of the INSPIRE randomized clinical trial, compared to placebo
Benefit compared to placebo at interim analysis [4]: no benefit
